Measurements as given in ChEMBL document CHEMBL1137042, “Synthesis and cytotoxic activity of novel derivatives of 4'-demethylepipodophyllotoxin” (Bioorg Med Chem Lett, 2004).

Columns and labels:
HL-60 = assay: In vitro inhibitory concentration required against human leukemic HL-60 cell line was determined after 48 hrs of drug exposure using MTT method; format: functional, cell-based; settings: HL-60, 48 h
A549 = assay: In vitro inhibitory concentration required against human lung carcinoma A-549 cell line was determined after 72 hrs of drug exposure using SRB method; format: functional, cell-based; settings: A549, 72 h

| SMILES | IC50 (HL-60) [nM] | IC50 (A549) [nM] |
| --- | --- | --- |
| COc1cc([C@@H]2c3cc4c(cc3[C@@H](NC(Cc3ccccc3)C(=O)OCCCCCn3cc(F)c(=O)[nH]c3=O)[C@H]3COC(=O)[C@H]23)OCO4)cc(OC)c1O (stereo not given in full) | 40 | < 10 |
| COc1cc([C@@H]2c3cc4c(cc3[C@@H](NC(C(=O)OCCCCn3cc(F)c(=O)[nH]c3=O)C(C)Cc3ccccc3)[C@H]3COC(=O)[C@H]23)OCO4)cc(OC)c1O (stereo not given in full) | 530 | 740 |
| COc1cc([C@@H]2c3cc4c(cc3[C@@H](NC(Cc3ccccc3)C(=O)OCCCn3cc(F)c(=O)[nH]c3=O)[C@H]3COC(=O)[C@H]23)OCO4)cc(OC)c1O (stereo not given in full) | 310 | 480 |
| COc1cc([C@@H]2c3cc4c(cc3[C@@H](NC(C(=O)OCCCn3cc(F)c(=O)[nH]c3=O)C(C)Cc3ccccc3)[C@H]3COC(=O)[C@H]23)OCO4)cc(OC)c1O (stereo not given in full) | 240 | 180 |
| O=c1[nH]cc(F)c(=O)[nH]1 [FLUOROURACIL] | 65300 | 50500 |
| COc1cc([C@@H]2c3cc4c(cc3[C@@H](NC(CSC)C(=O)OCCCCn3cc(F)c(=O)[nH]c3=O)[C@H]3COC(=O)[C@H]23)OCO4)cc(OC)c1O (stereo not given in full) | 50 | 1870 |
| COc1cc([C@@H]2c3cc4c(cc3[C@@H](NC(C(=O)OCCCCCn3cc(F)c(=O)[nH]c3=O)C(C)Cc3ccccc3)[C@H]3COC(=O)[C@H]23)OCO4)cc(OC)c1O (stereo not given in full) | 300 | 530 |
| COc1cc([C@@H]2c3cc4c(cc3[C@@H](NC(CSC)C(=O)OCCCCCn3cc(F)c(=O)[nH]c3=O)[C@H]3COC(=O)[C@H]23)OCO4)cc(OC)c1O (stereo not given in full) | 40 | 230 |
| COc1cc([C@@H]2c3cc4c(cc3[C@@H](NC(CSC)C(=O)OCCCn3cc(F)c(=O)[nH]c3=O)[C@H]3COC(=O)[C@H]23)OCO4)cc(OC)c1O (stereo not given in full) | 990 | 290 |
| COc1cc([C@@H]2c3cc4c(cc3[C@@H](NC(Cc3ccccc3)C(=O)OCCCCn3cc(F)c(=O)[nH]c3=O)[C@H]3COC(=O)[C@H]23)OCO4)cc(OC)c1O (stereo not given in full) | 420 | 300 |
